# Patent US8193164B2, “Organic compounds” (Novartis AG, priority 2006, dated 2012)
# Target: adenosine A2A receptor (Homo sapiens, UniProt P29274)
# Assay: adenosine A2A receptor agonist assay (method of Murphree et al, Molecular Pharmacology 61, 455-462 (2002))
# Assay type: binding
# Conditions: method described by L. J. Murphree et al, Mol. Pharmacol. 61, 455-462 (2002)
# From the text: Compounds of formulae (I) and (II) and their pharmaceutically acceptable salts are useful as pharmaceuticals. In particular, they activate the adenosine A2A receptor, i.e. they act as A2A receptor agonists.
# adenosine A2A receptor, sequence (P29274 whole entry): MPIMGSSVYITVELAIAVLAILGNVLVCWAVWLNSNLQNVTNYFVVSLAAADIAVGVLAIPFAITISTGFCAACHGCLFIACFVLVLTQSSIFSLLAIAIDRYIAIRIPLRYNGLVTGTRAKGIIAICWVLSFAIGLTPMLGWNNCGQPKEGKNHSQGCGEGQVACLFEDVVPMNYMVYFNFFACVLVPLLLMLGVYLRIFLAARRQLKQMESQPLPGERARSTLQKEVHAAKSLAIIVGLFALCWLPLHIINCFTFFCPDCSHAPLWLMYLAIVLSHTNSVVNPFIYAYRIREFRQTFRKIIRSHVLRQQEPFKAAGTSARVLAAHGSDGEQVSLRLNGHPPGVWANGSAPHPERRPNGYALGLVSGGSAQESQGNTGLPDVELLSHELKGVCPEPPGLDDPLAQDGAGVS
row,Ki [nM],SMILES
1,10,CCC(=O)N[C@H]1C[C@@H](n2cnc3c(NC(CO)Cc4ccccc4)nc(N4CC[C@@H](NC(=O)N[C@H]5CCN(c6nc(NC(CO)Cc7ccccc7)c7ncn([C@@H]8C[C@H](NC(=O)CC)[C@@H](O)[C@H]8O)c7n6)C5)C4)nc32)[C@H](O)[C@@H]1O (stereo in doubt) [Example 7]
2,70,CCC(=O)N[C@H]1C[C@@H](n2cnc3c(NCC(c4ccccc4)c4ccccc4)nc(N4CC[C@@H](NC(=O)NC5CCC(NC(=O)N[C@H]6CCN(c7nc(NCC(c8ccccc8)c8ccccc8)c8ncn([C@@H]9C[C@H](NC(=O)CC)[C@@H](O)[C@H]9O)c8n7)C6)CC5)C4)nc32)[C@H](O)[C@@H]1O (stereo in doubt) [Example 15]
3,10,CCC(=O)N[C@H]1C[C@@H](n2cnc3c(NCC(c4ccccc4)c4ccccc4)nc(N4CC[C@@H](NC(=O)N[C@@H]5CCN(c6nc(NCC(c7ccccc7)c7ccccc7)c7ncn([C@@H]8C[C@H](NC(=O)CC)[C@@H](O)[C@H]8O)c7n6)C5)C4)nc32)[C@H](O)[C@@H]1O [Example 1]
4,60,CCC(=O)N[C@H]1C[C@@H](n2cnc3c(NCC(c4ccccc4)c4ccccc4)nc(N4CC[C@@H](NC(=O)NS(=O)(=O)N[C@@H]5CCN(c6nc(NCC(c7ccccc7)c7ccccc7)c7ncn([C@@H]8C[C@H](NC(=O)CC)[C@@H](O)[C@H]8O)c7n6)C5)C4)nc32)[C@H](O)[C@@H]1O [Example 19]
